Tested on: 953936-095-R-J2-PDC spheroids with HUVEC/MSC, viability
Experiment: Anticancer human tumor 953936-095-R-J2-PDC patient-derived cervical squamous cell carcinoma cell line growth inhibition [PI3K]
Details: for IC50: curve of first compound; for viability, T/C: stronger effect = lower value
Procedure, shortened: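 Agents were dosed from a top concentration near clinical Cmax (otherwise 10 microM) in half-log decrements, alone or combined with PI3K inhibitors. The spheroids contain tumor cells plus endothelial (HUVEC) and MSC stroma; viability is measured.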

[1] = second compound 0.0316 µM, first compound 0.0316 µM
[2] = second compound 0.0316 µM, first compound 0.1 µM
[3] = second compound 0.0316 µM, first compound 0.316 µM
[4] = second compound 0.0316 µM, first compound 1 µM
[5] = second compound 0.1 µM, first compound 0.0316 µM
[6] = second compound 0.1 µM, first compound 0.1 µM
[7] = second compound 0.1 µM, first compound 0.316 µM
[8] = second compound 0.1 µM, first compound 1 µM
[9] = second compound 0.316 µM, first compound 0.0316 µM
[10] = second compound 0.316 µM, first compound 0.1 µM
[11] = second compound 0.316 µM, first compound 0.316 µM
[12] = second compound 0.316 µM, first compound 1 µM
[13] = second compound 1 µM, first compound 0.0316 µM
[14] = second compound 1 µM, first compound 0.1 µM
[15] = second compound 1 µM, first compound 0.316 µM
[16] = second compound 1 µM, first compound 1 µM
[17] = second compound 3.16 µM, first compound 0.0316 µM
[18] = second compound 3.16 µM, first compound 0.1 µM
[19] = second compound 3.16 µM, first compound 0.316 µM
[20] = second compound 3.16 µM, first compound 1 µM
[21] = second compound 10 µM, first compound 0.0316 µM
[22] = second compound 10 µM, first compound 0.1 µM
[23] = second compound 10 µM, first compound 0.316 µM
[24] = second compound 10 µM, first compound 1 µM
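Further: spheroids exposed to compounds for seven days before read-out.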

CC(C)NCC(C(=O)N1CCN(c2ncnc3c2C(C)CC3O)CC1)c1ccc(Cl)cc1 (centres undefined) + CC(Nc1ncnc2nc[nH]c12)c1cc2cccc(Cl)c2c(=O)n1-c1ccccc1
IC50 (second compound 0.0316 µM): 0.952 µM | IC50 (second compound 0.1 µM): 1.01 µM | IC50 (second compound 0.316 µM): 0.922 µM | IC50 (second compound 1 µM): 1.05 µM | IC50 (second compound 3.16 µM): 0.873 µM | IC50 (second compound 10 µM): 0.393 µM | viability, T/C [1]: 94.7% | viability, T/C [2]: 99.8% | viability, T/C [3]: 77.9% | viability, T/C [4]: 49.6% | viability, T/C (second compound 0.0316 µM, first compound 3.16 µM): 22.6% | viability, T/C (second compound 0.0316 µM, first compound 10 µM): 14.1% | viability, T/C [5]: 100% | viability, T/C [6]: 104% | viability, T/C [7]: 75.8% | viability, T/C [8]: 52.5% | viability, T/C (second compound 0.1 µM, first compound 3.16 µM): 24.3% | viability, T/C (second compound 0.1 µM, first compound 10 µM): 14.3% | viability, T/C [9]: 111% | viability, T/C [10]: 98.1% | viability, T/C [11]: 82% | viability, T/C [12]: 47.9% | viability, T/C (second compound 0.316 µM, first compound 3.16 µM): 23.1% | viability, T/C (second compound 0.316 µM, first compound 10 µM): 17.1% | viability, T/C [13]: 104% | viability, T/C [14]: 82.9% | viability, T/C [15]: 73.5% | viability, T/C [16]: 53.9% | viability, T/C (second compound 1 µM, first compound 3.16 µM): 26.2% | viability, T/C (second compound 1 µM, first compound 10 µM): 13.4% | viability, T/C [17]: 79.7% | viability, T/C [18]: 79.1% | viability, T/C [19]: 72.9% | viability, T/C [20]: 45.7% | viability, T/C (second compound 3.16 µM, first compound 3.16 µM): 23.6% | viability, T/C (second compound 3.16 µM, first compound 10 µM): 12.7% | viability, T/C [21]: 61.1% | viability, T/C [22]: 58.3% | viability, T/C [23]: 51.7% | viability, T/C [24]: 40% | viability, T/C (second compound 10 µM, first compound 3.16 µM): 20.1% | viability, T/C (second compound 10 µM, first compound 10 µM): 9.46%

CCN1CCN(Cc2ccc(Nc3ncc(F)c(-c4cc(F)c5nc(C)n(C(C)C)c5c4)n3)nc2)CC1 + CC(Nc1ncnc2nc[nH]c12)c1cc2cccc(Cl)c2c(=O)n1-c1ccccc1
IC50 (second compound 0.0316 µM): > 1 µM | IC50 (second compound 0.1 µM): > 1 µM | IC50 (second compound 0.316 µM): > 1 µM | IC50 (second compound 1 µM): > 1 µM | IC50 (second compound 3.16 µM): > 1 µM | IC50 (second compound 10 µM): > 1 µM | viability, T/C (second compound 0.0316 µM, first compound 0.00316 µM): 102% | viability, T/C (second compound 0.0316 µM, first compound 0.01 µM): 101% | viability, T/C [1]: 96.1% | viability, T/C [2]: 103% | viability, T/C [3]: 87.5% | viability, T/C [4]: 89.1% | viability, T/C (second compound 0.1 µM, first compound 0.00316 µM): 104% | viability, T/C (second compound 0.1 µM, first compound 0.01 µM): 106% | viability, T/C [5]: 111% | viability, T/C [6]: 93% | viability, T/C [7]: 86% | viability, T/C [8]: 81.3% | viability, T/C (second compound 0.316 µM, first compound 0.00316 µM): 100% | viability, T/C (second compound 0.316 µM, first compound 0.01 µM): 108% | viability, T/C [9]: 103% | viability, T/C [10]: 90.5% | viability, T/C [11]: 83.8% | viability, T/C [12]: 79.2% | viability, T/C (second compound 1 µM, first compound 0.00316 µM): 97% | viability, T/C (second compound 1 µM, first compound 0.01 µM): 97.7% | viability, T/C [13]: 104% | viability, T/C [14]: 82.9% | viability, T/C [15]: 76% | viability, T/C [16]: 74.2% | viability, T/C (second compound 3.16 µM, first compound 0.00316 µM): 87.8% | viability, T/C (second compound 3.16 µM, first compound 0.01 µM): 78.6% | viability, T/C [17]: 81.8% | viability, T/C [18]: 73.9% | viability, T/C [19]: 71.1% | viability, T/C [20]: 64% | viability, T/C (second compound 10 µM, first compound 0.00316 µM): 59.6% | viability, T/C (second compound 10 µM, first compound 0.01 µM): 57.2% | viability, T/C [21]: 57.2% | viability, T/C [22]: 62.1% | viability, T/C [23]: 52.8% | viability, T/C [24]: 49.8%
